According to publication PMC12648010 (Acta Pharmaceutica Sinica. B, 2025):

Target: T1, SLC38A9 (Homo sapiens, UniProt Q8NBW4)
T1 sequence (Q8NBW4 1-561): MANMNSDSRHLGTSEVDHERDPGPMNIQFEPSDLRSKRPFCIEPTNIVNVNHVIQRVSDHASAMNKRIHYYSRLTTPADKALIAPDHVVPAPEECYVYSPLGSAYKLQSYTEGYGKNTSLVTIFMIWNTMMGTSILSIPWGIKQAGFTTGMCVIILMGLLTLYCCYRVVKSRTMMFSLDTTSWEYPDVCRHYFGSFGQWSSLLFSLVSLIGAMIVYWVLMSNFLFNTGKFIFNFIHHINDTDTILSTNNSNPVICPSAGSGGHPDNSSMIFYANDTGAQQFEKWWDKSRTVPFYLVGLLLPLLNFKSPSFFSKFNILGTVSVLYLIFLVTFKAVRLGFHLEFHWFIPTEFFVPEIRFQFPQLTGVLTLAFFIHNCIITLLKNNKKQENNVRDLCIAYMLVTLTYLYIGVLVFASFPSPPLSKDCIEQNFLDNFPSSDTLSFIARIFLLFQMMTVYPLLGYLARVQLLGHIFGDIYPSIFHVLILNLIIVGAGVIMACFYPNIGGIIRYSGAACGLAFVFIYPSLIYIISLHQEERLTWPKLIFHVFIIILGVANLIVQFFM
Assay: SPR
Type: binding

Kd: 1.29 µM
SMILES: C=CC(=O)Nc1cccc2[nH]nc(-c3nc4ccc(N5CCN(C)CC5)cc4[nH]3)c12 [LLAD, N-(3-(6-(4-Methylpiperazin-1-yl) -1H-benzo[d]imidazole-2-yl)-1H-indazol-4-yl) acrylamide]
